The values that follow come from ChEMBL document CHEMBL1221187, “Histone deacetylase inhibitors reverse gene silencing in Friedreich's ataxia” (Nat Chem Biol, 2006).

One data set concerns the target Histone deacetylase. The experiment in a line: Inhibition of HDAC in human HeLa cell extract by fluorescence plate reader assay. The format is cell-free.
Data set [1] has as its system GM15850. The experiment in a line: Increase in FXN mRNA expression in human GM15850 cells at 5 uM after 96 hrs by qRT-PCR analysis relative to control. The class given is functional. In general terms: Quantitative PCR measures a nucleic acid by following its amplification.
Data set [2] deals with GM15850. The data set can be described thus: Increase in FXN mRNA expression in human GM15850 cells at 10 uM after 96 hrs by qRT-PCR analysis relative to control. The format is functional.
Data set [3] is described as follows: Cytotoxicity against human GM15850 cells at 5 uM after 96 hrs by trypan blue exclusion assay. Conditions: gm15850, 96 h. The class given is cell-based.
The subject of data set [4] is Lymphocyte. The experiment in a line: Increase in FXN mRNA expression in lymphocytes isolated from patient with Friedreich's ataxia at 10 uM after 48 hrs by qRT-PCR analysis. The class given is functional, cell-based. Conditions: Homo sapiens.
Data set [5] deals with GM15850. The experiment in a line: Increase in FXN mRNA expression in human GM15850 cells at 5 uM after 12 hrs by qRT-PCR analysis relative to control. The class given is functional.
Data set [6] in a line: Cytotoxicity against human GM15850 cells at 5 uM after 12 hrs by trypan blue exclusion assay. Conditions: gm15850, 12 h. The class given is cell-based.
In data set [7] the test system is GM15850. The experiment in a line: Increase in frataxin protein level in human GM15850 cells at 5 uM after 4 days by SDS-PAGE relative to control. The class given is functional.
Data set [8] deals with Lymphocyte. The experiment in a line: Increase in FXN mRNA expression in lymphocytes isolated from patient with Friedreich's ataxia at 2.5 uM after 48 hrs by qRT-PCR analysis. The class given is functional, Homo sapiens.
Data set [9] has as its system Lymphocyte. The data set can be described thus: Effect on FXN mRNA expression in healthy human lymphocytes at 2.5 uM after 48 hrs by qRT-PCR analysis. The class given is functional, cell-based.
Data set [10] is described as follows: Cytotoxicity against lymphocytes isolated from patient with Friedreich's ataxia at 2.5 to 5 uM after 48 hrs by trypan blue exclusion assay. The class given is cell-based. Conditions: human, lymphocyte.
Data set [11] deals with Lymphocyte. The experiment in a line: Increase in FXN mRNA expression in lymphocytes isolated from patient with Friedreich's ataxia at 5 uM after 48 hrs by qRT-PCR analysis. The class given is functional, Homo sapiens.
The test system of data set [12] is Lymphocyte. The data set can be described thus: Increase in FXN mRNA expression in lymphocytes isolated from patient with Friedreich's ataxia at 5 uM after 48 hrs by qRT-PCR analysis relative to control. The format is functional, Homo sapiens.
For data set [13], the system named is Lymphocyte. The experiment in a line: Increase in FXN mRNA expression in healthy human lymphocytes at 5 uM after 48 hrs by qRT-PCR analysis. The format is functional.
A short description of data set [14]: Decrease in FXN mRNA expression in human GM15850 cells at 5 uM after 12 hrs by qRT-PCR analysis. The class given is functional, cell-based.
The test system of data set [15] is Lymphocyte. The data set can be described thus: Increase in FXN mRNA expression in lymphocytes isolated from patient with Friedreich's ataxia at 2.5 to 7.5 uM after 48 hrs by qRT-PCR analysis. The format is functional, cell-based. Conditions: Homo sapiens.
Data set [16] deals with GM15850. The data set can be described thus: Increase in frataxin protein level in human GM15850 cells at 2.5 uM after 4 days by SDS-PAGE relative to control. The class given is functional.
The test system of data set [17] is Lymphocyte. The experiment in a line: Increase in FXN mRNA expression in lymphocytes isolated from patient with Friedreich's ataxia at 5 uM after 48 hrs by qRT-PCR analysis relative to mRNA level in healthy human lymphocytes. The format is functional.
Data set [18] deals with Lymphocyte. The experiment in a line: Increase in FXN mRNA expression in lymphocytes isolated from patient with Friedreich's ataxia at 10 uM after 48 hrs by qRT-PCR analysis relative to mRNA level in healthy human lymphocytes. The class given is functional.
Data set [19] has as its target T1, Histone deacetylase (Homo sapiens) (UniProt Q13547+O15379+Q9UBN7+Q92769+Q9UQL6+Q8WUI4+Q9BY41+Q96DB2+P56524+Q9UKV0+Q969S8). The data set can be described thus: Inhibition of HDAC in human GM15850 cells assessed as increase in histone H3 lysine 14 acetylation of FXN gene at 5 uM after 96 hrs by chromatin immunoprecipitation assay. The class given is cell-based.

Data set [20] concerns the target T1, Histone deacetylase (Homo sapiens). The experiment in a line: Inhibition of HDAC in human GM15850 cells assessed as increase in histone H4 lysine 5 acetylation of FXN gene at 5 uM after 96 hrs by chromatin immunoprecipitation assay. The class given is cell-based.
Data set [21] shares this target. The data set can be described thus: Inhibition of HDAC in human GM15850 cells assessed as increase in histone H4 lysine 12 acetylation of FXN gene at 5 uM after 96 hrs by chromatin immunoprecipitation assay. The format is cell-based.
For data set [22] the target is unchanged. The data set can be described thus: Inhibition of HDAC in human GM15850 cells assessed as increase in histone H3 lysine 9 acetylation of FXN gene at 5 uM after 96 hrs by chromatin immunoprecipitation assay. The class given is cell-based.
Data set [23] shares this target. The data set can be described thus: Inhibition of HDAC in human GM15850 cells assessed as increase in histone H4 lysine 8 acetylation of FXN gene at 5 uM after 96 hrs by chromatin immunoprecipitation assay. The class given is cell-based.
The target is the same in data set [24]. The experiment in a line: Inhibition of HDAC in human GM15850 cells assessed as increase in histone H4 lysine 16 acetylation of FXN gene at 5 uM after 96 hrs by chromatin immunoprecipitation assay. The format is cell-based.
For data set [25] the target is unchanged. The experiment in a line: Inhibition of HDAC in human GM15850 cells assessed as increase in total acetylated histone level at 400 uM after 12 hrs by Western blot analysis. The format is cell-based. On the technique in general: Immunoblotting shows a protein as a band on a membrane.
The test system of data set [26] is GM15850. The experiment in a line: Effect on FXN mRNA expression in human GM15850 cells at 5 uM after 12 hrs by qRT-PCR analysis. The format is functional, cell-based.

The structures appear in SMILES notation. Active and inactive are the calls of the source. No cut-off for these calls is given here.

As usually defined, the IC50 is the concentration that gives 50% inhibition. Low values mean higher potency, high ones lower potency. On Histone deacetylase, `Nc1ccccc1NC(=O)CCCCCC(=O)Nc1ccccc1N` registered an IC50 of 14 µM. Also, the “fold change (FC)” value with GM15850 [1] is on record as 3.1; in the data set with GM15850 [2] it was 3.5. For the same molecule, in data set [3], the Activity entry is on record as “Non-toxic”. In addition, the outcome in the data set with Lymphocyte [4] was Active.
`COc1ccc(NC(=O)CCCCCC(=O)Nc2ccccc2)cc1`: the IC50 at Histone deacetylase came to 438 µM. Besides, in the data set on GM15850 [1], the “fold change (FC)” value came out at 2.5. For the same molecule, the Activity result in data set [3] was “Non-toxic”.
As to `CC(/C=C/C(=O)NO)=C\[C@@H](C)C(=O)c1ccc(N(C)C)cc1` [TRICHOSTATIN], in data set [3], the Activity entry is on record as “Toxic”.
As for `Nc1ccccc1NC(=O)CCCCC(=O)Nc1ccccc1`, the IC50 against Histone deacetylase turned out to be 238 µM. For the same molecule, the “fold change (FC)” value in the data set on GM15850 [1] is listed as 1.4. Besides, the Activity entry in data set [3] was “Non-toxic”.
Consider `O=C(CCCCCC(=O)Nc1ccccc1)Nc1ccccc1`, for which the Activity result in [3] is “Non-toxic”.
The molecule `COc1cccc(NC(=O)CCCCCC(=O)Nc2ccccc2)c1` registered an IC50 at Histone deacetylase of more than 1 µM. Moreover, the “fold change (FC)” value in the data set with GM15850 [1] was determined as 1.8. In data set [3], the Activity result is given as “Non-toxic”.
`COc1ccccc1NC(=O)CCCCCC(=O)Nc1ccccc1` showed an IC50 against Histone deacetylase of 54 µM. For the same molecule, the “fold change (FC)” value in the data set with GM15850 [1] was determined as 2.3. The Activity entry in data set [3] is “Non-toxic”.
For the molecule `O=C(CCCCCC(=O)Nc1cnc2ccccc2c1)Nc1ccccc1`, at Histone deacetylase, the IC50 was 84 µM. The “fold change (FC)” value in the data set with GM15850 [1] is reported as 2.5. Besides, the Activity result in data set [3] is listed as “Non-toxic”.
With `COc1ccc(NC(=O)CCCCCC(=O)Nc2ccccc2)c(OC)c1`, the IC50 on Histone deacetylase is 387 µM. Besides, the “fold change (FC)” value in the data set on GM15850 [1] is given as 1.5. Further, in data set [3], the Activity result is recorded as “Non-toxic”.
For `Nc1cccc(NC(=O)CCCCCC(=O)Nc2ccccc2)c1`, on Histone deacetylase, the IC50 was determined as 500 µM. Besides, the “fold change (FC)” value in the data set on GM15850 [1] was found to be 1.5. In addition, the Activity result in data set [3] was “Non-toxic”.
In the case of `Nc1ccccc1NC(=O)CCCCCCC(=O)Nc1ccccc1`, the “fold change (FC)” value was found to be 2 with GM15850 [5], 1.4 in the data set with GM15850 [1], 3 in the data set on GM15850 [7] and 1.8 with Lymphocyte [12]. For the same molecule, the Activity entry in data set [6] is recorded as “Non-toxic”; in [3] it was “Non-toxic”; in the data set with Lymphocyte [8], 33%; in data set [10], “Non-toxic”; in the data set on Lymphocyte [11], 80%. Further, the IC50 against Histone deacetylase came out at 87 µM. Moreover, the outcome with Lymphocyte [9] and in the data set on Lymphocyte [13] was inactive.
On Histone deacetylase, `Nc1ccccc1NC(=O)CCCCCC(=O)Nc1ccccn1` registered an IC50 of 91 µM. Also, the “fold change (FC)” value in the data set on GM15850 [1] is 2.4. Moreover, the Activity result in [3] is recorded as “Non-toxic”. Also, the result in the data set with Lymphocyte [4] was Active.
At Histone deacetylase, `O=C(CCCCCCC(=O)Nc1ccccn1)Nc1ccccc1` showed an IC50 of 99 µM. The “fold change (FC)” value in the data set with GM15850 [1] was found to be 2. Also, the Activity result in [3] was “Non-toxic”. Also, the result with Lymphocyte [4] was inactive.
In the case of `Nc1ccc(NC(=O)CCCCCC(=O)Nc2ccccc2)cc1`, the IC50 against Histone deacetylase worked out at 123 µM. In addition, the “fold change (FC)” value in the data set on GM15850 [1] was found to be 2.6. In data set [3], the Activity entry is reported as “Non-toxic”. Further, the result in the data set on Lymphocyte [4] was inactive.
`O=C(CCCCCC(=O)Nc1ccccn1)Nc1ccccc1` had an IC50 against Histone deacetylase of 140 µM. In the data set on GM15850 [1], the “fold change (FC)” value is given as 2.6. The Activity result in data set [3] is on record as “Non-toxic”.
`COc1ccccc1NC(=O)CCCCCCC(=O)Nc1ccccc1` showed an IC50 at Histone deacetylase of 470 µM. In the data set with GM15850 [1], the “fold change (FC)” value is 1.8. In data set [3], the Activity result is reported as “Non-toxic”.
For orientation: inhibition means the relative decrease from the control value, in per cent. In data set [14], `O=C(CCCCCCC(=O)NO)NO` [SUBEROHYDROXAMIC ACID] gave an inhibition of 50%. Moreover, in data set [3], the Activity result was “Non-toxic”.
`O=C(CCCCCC(=O)Nc1cccc2cccnc12)Nc1ccccc1` had an IC50 on Histone deacetylase of 17 µM. Besides, the “fold change (FC)” value in the data set on GM15850 [1] was determined as 3. Further, the Activity entry in [3] is “Non-toxic”.
On to `Nc1ccccc1NC(=O)CCCCCC(=O)Nc1ccccc1`, for which the result (with Lymphocyte [15]; in data set [19]; in data set [20]; in [21]) was Active. This molecule displayed an IC50 on Histone deacetylase of 78 µM. Besides, the “fold change (FC)” value is recorded as 2.5 with GM15850 [1], 3 in the data set with GM15850 [16] and 2.3 in the data set with Lymphocyte [12]. Besides, the Activity entry in [3] is “Non-toxic”; in the data set on Lymphocyte [8], 33%; in [10], “Non-toxic”; in the data set with Lymphocyte [11], 130%; in the data set with Lymphocyte [13], 38%; with Lymphocyte [17] it was 80%. The same molecule displayed an Activity with Lymphocyte [18] of 160%. Moreover, the outcome (in the data set on Lymphocyte [9]; in data set [22]; in [23]; in [24]) was inactive.
In turn, `Nc1cccc(NC(=O)CCCCCCC(=O)Nc2ccccc2)c1` returned an IC50 at Histone deacetylase of 85 µM. Also, in the data set on GM15850 [1], the “fold change (FC)” value was 2.1. In addition, in [3], the Activity result is “Non-toxic”.
The corresponding values for `Nc1ccc(NC(=O)CCCCCCC(=O)Nc2ccccc2)cc1` are 186 µM, 2 and “Non-toxic”.
On to `CCCC(CCC)C(=O)O` [VALPROIC ACID], for which the inhibition entry in data set [25] is “Active”. The Activity entry in data set [3] is listed as “Non-toxic”.
Consider `O=C(CCCCCCC(=O)Nc1ccccc1)NO` [VORINOSTAT], for which, in the data set with GM15850 [26], the outcome was inactive. Further, the Activity result in data set [3] is recorded as “Toxic”.
